Holding throughout (assay): relative viability (nuclei count vs DMSO), 5 days (fraction); higher = more cells survive
Compound in the experiment “Sulindac + Alpelisib”: CC1=C(CC(=O)O)c2cc(F)ccc2/C1=C\c1ccc([S+](C)[O-])cc1 [Sulindac] + Cc1nc(NC(=O)N2CCC[C@H]2C(N)=O)sc1-c1ccnc(C(C)(C)C(F)(F)F)c1 [Alpelisib] (partner 2 µM)
Put shortly:
(§1)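 Medians of duplicate plates are given as relative viability. That measure is the nuclei count in treated wells divided by the count in vehicle wells. Counts were taken on 4× images of lung cancer cell lines in 1536-well plates, 5 days after pin-tool dosing the day after seeding with one drug alone or a fixed anchor-drug dose plus five library-drug doses (not always all listed) in √10 steps.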

Compound in experiment [1]: CN[C@@H]1C[C@H]2O[C@@](C)([C@@H]1OC)n1c3ccccc3c3c4c(c5c6ccccc6n2c5c31)C(=O)NC4 [Staurosporine] + CS(=O)(=O)CCNCc1ccc(-c2ccc3ncnc(Nc4ccc(OCc5cccc(F)c5)c(Cl)c4)c3c2)o1 [Lapatinib] (partner 2 µM)
Put shortly:
as §1

Compound in experiment [2]: CN[C@@H]1C[C@H]2O[C@@](C)([C@@H]1OC)n1c3ccccc3c3c4c(c5c6ccccc6n2c5c31)C(=O)NC4 [Staurosporine] + CC(=O)Nc1cccc(-n2c(=O)n(C3CC3)c(=O)c3c(Nc4ccc(I)cc4F)n(C)c(=O)c(C)c32)c1 [Trametinib] (partner 0.02 µM)
Put shortly:
as §1

Compound in the experiment “Sulindac + Olaparib”: CC1=C(CC(=O)O)c2cc(F)ccc2/C1=C\c1ccc([S+](C)[O-])cc1 [Sulindac] + O=C(c1cc(Cc2n[nH]c(=O)c3ccccc23)ccc1F)N1CCN(C(=O)C2CC2)CC1 [Olaparib] (partner 8 µM)
An outline of the steps:
as §1

On to NCI-H2347, for which the relative viability with Sulindac + Alpelisib (first compound 0.08 µM) was found to be 1.22; in the experiment with Sulindac + Alpelisib (first compound 0.253 µM), 1.05; with Sulindac + Alpelisib (first compound 0.8 µM), 0.938; with Sulindac + Alpelisib (first compound 2.53 µM), 1.04; with Sulindac + Alpelisib (first compound 8 µM), 1.17; in experiment [1] (first compound 0.005 µM), 0.457. The relative viability was found to be 0.348 in experiment [1] (first compound 0.01581 µM); 0.352 in experiment [1] (first compound 0.05 µM); 0.319 in experiment [1] (first compound 0.1581 µM); 0.407 in experiment [1] (first compound 0.5 µM); 0.259 in experiment [2] (first compound 0.005 µM); 0.248 in experiment [2] (first compound 0.01581 µM). The relative viability in experiment [2] (first compound 0.05 µM) was determined as 0.174; in experiment [2] (first compound 0.1581 µM) it was 0.221; in experiment [2] (first compound 0.5 µM) it was 0.186; with Sulindac + Olaparib (first compound 0.08 µM), 0.546; in the experiment with Sulindac + Olaparib (first compound 0.253 µM), 0.599; with Sulindac + Olaparib (first compound 0.8 µM), 0.562. Also, the relative viability with Sulindac + Olaparib (first compound 2.53 µM) was determined as 0.574; in the experiment with Sulindac + Olaparib (first compound 8 µM) it was 0.616.
As to NCI-H2405, the relative viability with Sulindac + Alpelisib (first compound 0.08 µM) was found to be 0.725; with Sulindac + Alpelisib (first compound 0.253 µM) it was 0.794; with Sulindac + Alpelisib (first compound 0.8 µM) it was 0.713; with Sulindac + Alpelisib (first compound 2.53 µM), 0.796; with Sulindac + Alpelisib (first compound 8 µM), 0.917; in experiment [1] (first compound 0.005 µM) it was 0.395. Moreover, the relative viability in experiment [1] (first compound 0.01581 µM) turned out to be 0.148; in experiment [1] (first compound 0.05 µM), 0.113; in experiment [1] (first compound 0.1581 µM), 0.0819; in experiment [1] (first compound 0.5 µM) it was 0.0797; in experiment [2] (first compound 0.005 µM), 0.355; in experiment [2] (first compound 0.01581 µM), 0.161. In addition, the relative viability was 0.148 in experiment [2] (first compound 0.05 µM); 0.0927 in experiment [2] (first compound 0.1581 µM); 0.0684 in experiment [2] (first compound 0.5 µM); 0.93 with Sulindac + Olaparib (first compound 0.08 µM); 0.851 in the experiment with Sulindac + Olaparib (first compound 0.253 µM); 0.86 with Sulindac + Olaparib (first compound 0.8 µM). The relative viability with Sulindac + Olaparib (first compound 2.53 µM) was 0.831; with Sulindac + Olaparib (first compound 8 µM), 1.08.
For NCI-H3122, the relative viability in the experiment with Sulindac + Alpelisib (first compound 0.08 µM) is 0.639; with Sulindac + Alpelisib (first compound 0.253 µM) it was 0.722; with Sulindac + Alpelisib (first compound 0.8 µM), 0.699; with Sulindac + Alpelisib (first compound 2.53 µM) it was 0.756; with Sulindac + Alpelisib (first compound 8 µM), 0.941; in experiment [1] (first compound 0.005 µM), 1.01. The relative viability worked out at 0.318 in experiment [1] (first compound 0.01581 µM); 0.988 in experiment [1] (first compound 0.05 µM); 0.665 in experiment [1] (first compound 0.1581 µM); 0.685 in experiment [1] (first compound 0.5 µM); 0.368 in experiment [2] (first compound 0.005 µM); 0.648 in experiment [2] (first compound 0.05 µM). For the same cell line, the relative viability in experiment [2] (first compound 0.5 µM) was determined as 0.221; in the experiment with Sulindac + Olaparib (first compound 0.08 µM) it was 0.739; in the experiment with Sulindac + Olaparib (first compound 0.253 µM), 0.648; with Sulindac + Olaparib (first compound 0.8 µM), 0.579; with Sulindac + Olaparib (first compound 2.53 µM), 0.655; with Sulindac + Olaparib (first compound 8 µM) it was 0.604.
In the case of PC-3 [JPC-3], the relative viability with Sulindac + Alpelisib (first compound 0.08 µM) turned out to be 1.18; in the experiment with Sulindac + Alpelisib (first compound 0.253 µM), 1.03; in the experiment with Sulindac + Alpelisib (first compound 0.8 µM), 0.95; with Sulindac + Alpelisib (first compound 2.53 µM), 1.08; in the experiment with Sulindac + Alpelisib (first compound 8 µM), 1.04; in experiment [1] (first compound 0.005 µM) it was 0.46. Further, the relative viability turned out to be 0.429 in experiment [1] (first compound 0.05 µM); 0.287 in experiment [1] (first compound 0.1581 µM); 0.307 in experiment [1] (first compound 0.5 µM); 0.704 in experiment [2] (first compound 0.005 µM); 0.543 in experiment [2] (first compound 0.01581 µM); 0.453 in experiment [2] (first compound 0.05 µM). Further, the relative viability in experiment [2] (first compound 0.1581 µM) was 0.391; in experiment [2] (first compound 0.5 µM), 0.332; in the experiment with Sulindac + Olaparib (first compound 0.08 µM) it was 1.36; in the experiment with Sulindac + Olaparib (first compound 0.253 µM) it was 1.09; with Sulindac + Olaparib (first compound 0.8 µM), 0.941; in the experiment with Sulindac + Olaparib (first compound 2.53 µM), 1.13. Further, the relative viability with Sulindac + Olaparib (first compound 8 µM) is 1.25.

The record behind these values is the supplement of paper PMC10307832.
